Each block holds one compound with its values, some of them ahead of it.
Tests used:
[1] = solubility of ODV succinate forms; format: physicochemical; conditions: novel hydrate form of the present invention
[2] = converted into form III on milling; per U.S. Pat. No. 6,673,838; cited from earlier work
[3] = in vivo; cited from earlier work

- solubility [1]: 55 mg/mL
SMILES: CN(C)CC(c1ccc(O)cc1)C1(O)CCCCC1.O=C(O)CCC(=O)O (stereo not drawn) [novel hydrate form of ODV succinate, O-desmethyl venlafaxine succinate]

SMILES: CN(C)CC(c1ccc(O)cc1)C1(O)CCCCC1.O.O=C(O)CCC(=O)O (stereo not drawn) [ODV succinate monohydrate form I]
- stability of polymorphic form on milling [2]: unstable

SMILES: CN(C)CC(c1ccc(O)cc1)C1(O)CCCCC1.O=C(O)CCC(=O)O (stereo not drawn) [ODV succinate, O-desmethyl venlafaxine succinate]
- absorption in the gastrointestinal tract [3]: well absorbed
